Measured values as given in PubChem BioAssay AID330 (DTP/NCI, 2004).
Several values for one entry are separate records, joined by “and”; a condition that tells them apart may be missing. Equal values may be shown once. Toxic doses and inconclusive results are not listed.

Tested on: P388 leukemia ip, CD2F1 mice, survival T/C
Assay: NCI In Vivo Anticancer Drug Screen. Data for tumor model P388 Leukemia (intraperitoneal) in CD2F1 (CDF1) mice
Settings: endpoint: median survival time, higher = longer survival
Outline: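 Mice carrying the transplanted tumor received test compound or vehicle. Survival was recorded in each group, and the value is the treated-group measurement divided by that of the vehicle-treated control group.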

[1] = dose: 50.0 mg/kg/injection, schedule: Q01DX005 (ip), vehicle: saline
[2] = dose: 100.0 mg/kg/injection, schedule: Q01DX005 (ip), vehicle: saline
[3] = dose: 200.0 mg/kg/injection, schedule: Q01DX005 (ip), vehicle: saline
[4] = dose: 12.5 mg/kg/injection, schedule: Q01DX009 (ip), vehicle: distilled water + Tween-80
[5] = dose: 25.0 mg/kg/injection, schedule: Q01DX009 (ip), vehicle: distilled water + Tween-80
[6] = dose: 50.0 mg/kg/injection, schedule: Q01DX009 (ip), vehicle: distilled water + Tween-80
[7] = dose: 200.0 mg/kg/injection, schedule: Q01DX009 (ip), vehicle: distilled water + Tween-80
[8] = dose: 50.0 mg/kg/injection, schedule: Q01DX005 (ip), vehicle: saline with Tween-80
[9] = dose: 60.0 mg/kg/injection, schedule: Q01DX005 (ip), vehicle: saline with Tween-80
[10] = dose: 120.0 mg/kg/injection, schedule: Q01DX005 (ip), vehicle: saline with Tween-80
[11] = dose: 240.0 mg/kg/injection, schedule: Q01DX005 (ip), vehicle: saline with Tween-80

SMILES: C=CC(C)(Cl)C(Cl)/C=C/C(C=O)=C/Cl (centres undefined)
- T/C (dose: 1.75 mg/kg/injection, schedule: Q01DX009 (ip), vehicle: Klucel (hydroxypropylcellulose) (HPC)): 101 % of control
- T/C (dose: 3.5 mg/kg/injection, schedule: Q01DX009 (ip), vehicle: Klucel (hydroxypropylcellulose) (HPC)): 100 % of control
- T/C (dose: 7.0 mg/kg/injection, schedule: Q01DX009 (ip), vehicle: Klucel (hydroxypropylcellulose) (HPC)): 101 % of control
- T/C (dose: 14.0 mg/kg/injection, schedule: Q01DX009 (ip), vehicle: Klucel (hydroxypropylcellulose) (HPC)): 100 % of control

SMILES: CCn1c(O)c(N=NC(=N)SCC(C)C)c2ccccc21
- T/C (dose: 6.25 mg/kg/injection, schedule: Q01DX009 (ip), vehicle: suspension in saline): 97 % of control
- T/C (dose: 12.5 mg/kg/injection, schedule: Q01DX009 (ip), vehicle: suspension in saline): 94 % of control

SMILES: OC1(c2ccc(Cl)cc2)c2ccccc2COc2ccccc21 (centres undefined)
- T/C (dose: 100.0 mg/kg/injection, schedule: Q01DX001 (ip), vehicle: Klucel (hydroxypropylcellulose) (HPC)): 102 % of control
- T/C (dose: 200.0 mg/kg/injection, schedule: Q01DX001 (ip), vehicle: Klucel (hydroxypropylcellulose) (HPC)): 100 % of control
- T/C (dose: 400.0 mg/kg/injection, schedule: Q01DX001 (ip), vehicle: Klucel (hydroxypropylcellulose) (HPC)): 100 % of control

SMILES: CCCCNC(=O)OCc1ccc(NCCN(CC)CC)c2c(=O)c3ccccc3sc12
- T/C (dose: 1.56 mg/kg/injection, schedule: Q01DX005 (ip), vehicle: distilled water + Tween-80): 105 % of control and 97 % of control
- T/C (dose: 3.12 mg/kg/injection, schedule: Q01DX005 (ip), vehicle: distilled water + Tween-80): 102 % of control and 112 % of control and 119 % of control
- T/C (dose: 6.25 mg/kg/injection, schedule: Q01DX005 (ip), vehicle: distilled water + Tween-80): 101 % of control and 111 % of control

SMILES: CCC[CH2][Sn]1([CH2]CCC)[O]CCN2CCN(CC[O]1)CC2
- T/C (dose: 3.75 mg/kg/injection, schedule: Q01DX005 (ip), vehicle: saline with Tween-80): 102 % of control
- T/C (dose: 7.5 mg/kg/injection, schedule: Q01DX005 (ip), vehicle: saline with Tween-80): 100 % of control
- T/C (dose: 15.0 mg/kg/injection, schedule: Q01DX005 (ip), vehicle: saline with Tween-80): 100 % of control

SMILES: Cc1oc(N)c(C(N)=O)c1C
- T/C (dose: 100.0 mg/kg/injection, schedule: Q01DX009 (ip), vehicle: saline sonified): 115 % of control
- T/C (dose: 200.0 mg/kg/injection, schedule: Q01DX009 (ip), vehicle: saline sonified): 110 % of control
- T/C (dose: 400.0 mg/kg/injection, schedule: Q01DX009 (ip), vehicle: saline sonified): 115 % of control

SMILES: O=NN(CC(=O)O)CC1(O)OCC(O)C(O)C1O (centres undefined)
- T/C [1]: 94 % of control
- T/C [2]: 105 % of control
- T/C [3]: 103 % of control

SMILES: N/C(=N\N=C\c1cc(Br)cc(Br)c1O)N/N=C/c1cc(Br)cc(Br)c1O
- T/C [4]: 88 % of control
- T/C [5]: 93 % of control
- T/C [6]: 90 % of control
- T/C [7]: 98 % of control

SMILES: CN(C)CCO
- T/C (dose: 60.0 mg/kg/injection, schedule: Q01DX005 (ip), vehicle: saline): 104 % of control
- T/C (dose: 120.0 mg/kg/injection, schedule: Q01DX005 (ip), vehicle: saline): 100 % of control
- T/C (dose: 240.0 mg/kg/injection, schedule: Q01DX005 (ip), vehicle: saline): 118 % of control

SMILES: Cn1ccc(C#N)c(C#N)c1=O
- T/C (dose: 25.0 mg/kg/injection, schedule: Q01DX005 (ip), vehicle: Klucel (hydroxypropylcellulose) (HPC)): 97 % of control
- T/C (dose: 50.0 mg/kg/injection, schedule: Q01DX005 (ip), vehicle: Klucel (hydroxypropylcellulose) (HPC)): 99 % of control
- T/C (dose: 100.0 mg/kg/injection, schedule: Q01DX005 (ip), vehicle: Klucel (hydroxypropylcellulose) (HPC)): 106 % of control
- T/C (dose: 200.0 mg/kg/injection, schedule: Q01DX005 (ip), vehicle: Klucel (hydroxypropylcellulose) (HPC)): 97 % of control

SMILES: NC(=O)CCSC(N)=O
- T/C [8]: 102 % of control
- T/C (dose: 100.0 mg/kg/injection, schedule: Q01DX005 (ip), vehicle: saline with Tween-80): 100 % of control
- T/C (dose: 200.0 mg/kg/injection, schedule: Q01DX005 (ip), vehicle: saline with Tween-80): 102 % of control

SMILES: C(=N\Nc1nnc2c3ccccc3c3ccccc3c2n1)/c1ccc2c(c1)OCO2
- T/C (dose: 50.0 mg/kg/injection, schedule: Q04DX002 (ip), vehicle: suspension in saline): 91 % of control
- T/C (dose: 100.0 mg/kg/injection, schedule: Q04DX002 (ip), vehicle: suspension in saline): 88 % of control
- T/C (dose: 200.0 mg/kg/injection, schedule: Q04DX002 (ip), vehicle: suspension in saline): 91 % of control

SMILES: CCN1CCN(CCCl)C1=O
- T/C (dose: 200.0 mg/kg/injection, schedule: Q01DX009 (ip), vehicle: saline): 160 % of control

SMILES: CSCSCC(CO)NC(=O)/C=C/c1c[nH]c(=O)[nH]c1=O (centres undefined)
- T/C (dose: 1.0 mg/kg/injection, schedule: Q01DX009 (ip), vehicle: other): 92 % of control
- T/C (dose: 2.0 mg/kg/injection, schedule: Q01DX009 (ip), vehicle: other): 97 % of control
- T/C (dose: 4.0 mg/kg/injection, schedule: Q01DX009 (ip), vehicle: other): 98 % of control
- T/C (dose: 8.0 mg/kg/injection, schedule: Q01DX009 (ip), vehicle: other): 93 % of control
- T/C (dose: 16.0 mg/kg/injection, schedule: Q01DX009 (ip), vehicle: other): 102 % of control
- T/C (dose: 32.0 mg/kg/injection, schedule: Q01DX009 (ip), vehicle: other): 107 % of control

SMILES: O=C1CCCN1C1CC2c3ccccc3C1c1cccc[n+]12 (centres undefined)
- T/C (dose: 5.0 mg/kg/injection, schedule: Q01DX009 (ip), vehicle: saline sonified): 100 % of control
- T/C (dose: 10.0 mg/kg/injection, schedule: Q01DX009 (ip), vehicle: saline sonified): 100 % of control
- T/C (dose: 20.0 mg/kg/injection, schedule: Q01DX009 (ip), vehicle: saline sonified): 95 % of control

SMILES: O=C(Nc1cccnc1)c1ccc([N+](=O)[O-])s1
- T/C (dose: 25.0 mg/kg/injection, schedule: Q01DX005 (ip), vehicle: saline): 90 % of control
- T/C [1]: 87 % of control
- T/C [2]: 92 % of control
- T/C [3]: 103 % of control
- T/C (dose: 400.0 mg/kg/injection, schedule: Q01DX005 (ip), vehicle: saline): 121 % of control

SMILES: c1ccc(C2SC3=NCCCN3Cc3ccccc32)cc1 (centres undefined)
- T/C (dose: 12.5 mg/kg/injection, schedule: Q01DX009 (ip), vehicle: saline): 104 % of control
- T/C (dose: 25.0 mg/kg/injection, schedule: Q01DX009 (ip), vehicle: saline): 109 % of control
- T/C (dose: 50.0 mg/kg/injection, schedule: Q01DX009 (ip), vehicle: saline): 104 % of control and 97 % of control

SMILES: CC1(C)CC(=O)C2=C(SC3=C(C2)C(=O)CC(C)(C)S3)S1
- T/C (dose: 60.0 mg/kg/injection, schedule: Q01DX005 (ip), vehicle: Klucel (hydroxypropylcellulose) (HPC)): 104 % of control
- T/C (dose: 120.0 mg/kg/injection, schedule: Q01DX005 (ip), vehicle: Klucel (hydroxypropylcellulose) (HPC)): 100 % of control
- T/C (dose: 240.0 mg/kg/injection, schedule: Q01DX005 (ip), vehicle: Klucel (hydroxypropylcellulose) (HPC)): 87 % of control

SMILES: COc1ccc(-n2cccc2/C=N\O)cc1OC
- T/C [9]: 93 % of control
- T/C [10]: 94 % of control
- T/C [11]: 93 % of control

SMILES: Clc1ccc2ncnc(Nc3ccccc3)c2c1
- T/C (dose: 50.0 mg/kg/injection, schedule: Q01DX009 (ip), vehicle: Klucel (hydroxypropylcellulose) (HPC)): 91 % of control
- T/C (dose: 100.0 mg/kg/injection, schedule: Q01DX009 (ip), vehicle: Klucel (hydroxypropylcellulose) (HPC)): 100 % of control
- T/C (dose: 200.0 mg/kg/injection, schedule: Q01DX009 (ip), vehicle: Klucel (hydroxypropylcellulose) (HPC)): 86 % of control

SMILES: CCOC(=O)Nc1cc2ncc(-c3ccccc3)nc2c(N)n1
- T/C (dose: 50.0 mg/kg/injection, schedule: Q01DX001 (ip), vehicle: saline with Tween-80): 97 % of control
- T/C (dose: 100.0 mg/kg/injection, schedule: Q01DX001 (ip), vehicle: saline with Tween-80): 93 % of control
- T/C (dose: 200.0 mg/kg/injection, schedule: Q01DX001 (ip), vehicle: saline with Tween-80): 90 % of control

SMILES: N#CCc1ccccc1C#N
- T/C (dose: 12.5 mg/kg/injection, schedule: Q01DX005 (ip), vehicle: saline with Tween-80): 100 % of control
- T/C (dose: 25.0 mg/kg/injection, schedule: Q01DX005 (ip), vehicle: saline with Tween-80): 99 % of control
- T/C [8]: 101 % of control

SMILES: O=c1c2ccccc2nnn1OCc1ccccc1
- T/C [4]: 100 % of control
- T/C [5]: 103 % of control
- T/C [6]: 97 % of control
- T/C (dose: 100.0 mg/kg/injection, schedule: Q01DX009 (ip), vehicle: distilled water + Tween-80): 101 % of control
- T/C [7]: 103 % of control

SMILES: CC(C)(C)C(=O)NC(OC(NC(=O)C(C)(C)C)C(=O)C(C)(C)C)C(=O)C(C)(C)C (centres undefined)
- T/C [9]: 97 % of control
- T/C [10]: 99 % of control
- T/C [11]: 105 % of control
